Data taken from patent US20110045004A1, “METHOD FOR IN-VITRO DETECTING PATHOGENIC T HELPER CELLS AND PHARMACEUTICAL COMPOSITIONS FOR TREATING AUTOIMMUNE DISEASES” (DEUTCHES RHEUMA-FORSCHUNGSZENTRUM BERLIN, priority 2007, published 2011).

Columns and labels:
[1] = system: twist1 mRNA in 4-w-old Th1 cells; experiment: twist1 mRNA (RT PCR) in restimulated 4-w-old Th1 cells with inhibitors or single stimuli; type: cell-based, murine; conditions: for PMA/ionomycin mediated up-regulation of twist1 mRNA expression: 4-w-old Th1 cells restimulated 3 h with PMA/ionomycin and IL-2, serial dilutions of inhibitor (FIG. 2B); for induction of twist1 expression by stimulus alone: 4-w-old Th1 cells restimulated 3 h in the presence of IL-2 (FIG. 2C)
Protocol: (§1) Lymphocytes were cultured in complete RPMI1640 (Invitrogen) supplemented with 10% heat-inactivated fetal calf serum, 100 units/ml penicillin, 0.1 mg/ml streptomycin and 10 μM β-mercaptoethanol. Naïve CD4+CD62L+ lymphocytes from 6-8 w old DO11.10 mice were isolated as described. Irradiated (30 Gy) BALB/c splenocytes were used as APCs at a ratio of 5:1. The cognate peptide ova323-339 (R. Volkmer-Engert, Humboldt University of Berlin, Germany) was added at 0.5 μM. Alternatively, plates were coated with 3 μg/ml anti-CD3 (145-2C11) in PBS, and CD4+ cells were plated at a density of 2×10^6 cells/ml in medium plus 1 μg/ml soluble anti-CD28 (37.51). For Th1 differentiation, cells were stimulated in the presence of 5 ng/ml recombinant murine IL-12 (R&D Systems) and 5 μg/ml anti-IL-4 antibody (11B11). For Th2 differentiation, cells were stimulated in the presence of murine IL-4 (100 ng/ml, culture supernatant of HEK293T cells transfected with an expression plasmid, encoding murine IL-4), 5 μg/ml anti-IL-12 antibody (C17.8.6) and anti-IFN-γ antibody (AN18.17.24). Dead cells were removed by Ficoll-Histopaque separation. Every 6 d viable Th cells were harvested and restimulated under the original conditions, except that 10 ng/ml murine IL-2 (R&D Systems) was added.
Cells were re-stimulated with 10 ng/ml PMA, and 1 μg/ml ionomycin. Alternatively, cells were re-stimulated with plate-bound anti-CD3 (10 μg/ml), and soluble anti-CD28 ([…]). For re-stimulation of murine T cells, 10 ng/ml IL-2 was added. For intracellular staining of cytokines, T cells were stimulated for 2 h with PMA/ionomycin and additional 3 h with 5 μg/ml of brefeldin A to block the secretion of cytokines. Cells were fixed with 2% formaldehyde in PBS for 15 min at room temperature and permeabilized with 0.5% w/v saponin.
(§2) Total RNA was prepared using NucleoSpin RNA II (Macherey-Nagel) or RNeasy kit (Qiagen). […] For the normalization of murine and human cDNA the transcripts for the housekeeping genes hypoxanthine guanine phosphoribosyl transferase (HPRT) and ubiquitin ligase H5 (UbCH5) were quantified, respectively. Data were evaluated using Lightcycler software. Relative expression was calculated as follows: Et^ΔCp target gene (reference-sample)/EhΔCp housekeeping gene (reference-sample), where Cp represents the crossing point and E represents the reaction efficiency, determined by serial dilution of DNA.
(A) Comparison of the genomic sequence of the murine and the human proximal twist1 promoter (−150 to −100). […] The binding of NFAT1 (D) and the NF-κB subunit p65 (E) to the proximal promoter of twist1 was analyzed by chromatin immunoprecipitation (ChIP). […] The immunoprecipitated DNA was quantified by RT PCR using primers specific for the proximal promoter. […]

[2] = system: Rag-deficient mice, intestine; experiment: Transfer colitis model with Hop shRNA transduced Th1 cells; type: in vivo, murine; conditions: Th1 cells transduced with shRNA transferred into Rag-deficient mice (FIG. 12)
Source text: To assess the functional role of hop we used a T cell dependent model of inflammatory bowel disease. In this model, T cells are transferred into Rag-deficient or SCID mice lacking T and B cells. In this model, the transferred T cells react against the intestinal bacterial flora leading to inflammation in the intestine. For the analysis of the function of Hop we inhibited the expression of Hop by shRNA-mediated knock-down. Polyclonally activated Th1 cells transduced with a retroviral vector encoding a Hop-specific shRNA or a control shRNA were transferred into Rag-deficient mice. […] The transfer of control Th1 cells lead to severe inflammation of the intestine with strong infiltration of inflammatory cells and a complete loss of the intestinal architecture.

[3] = system: twist1 mRNA in DO11.10 Th cells; experiment: twist1 mRNA induction by Th1-polarizing signals in DO11.10 Th cells; type: cell-based, murine; conditions: for induction of twist1 expression by polarizing signal: CD62Lhi DO11.10 Th cells stimulated 5 d, then 3 h PMA/ionomycin and IL-2, IFN-γ tested in the absence of IL-12 (FIG. 3A)
Protocol: as §1, §2
Twist1 mRNA of Th cells activated for 3 h with PMA/ionomycin and IL-2 was quantified by RT PCR (A-D). […] Twist1 transcripts were quantified on d 11. […]

Molecule: O=C(Nc1ccc(-n2nc(C(F)(F)F)cc2C(F)(F)F)cc1)c1ccc(Cl)cc1 [BTP1]
- PMA/ionomycin mediated up-regulation of twist1 mRNA expression [1]: blocked the PMA/ionomycin mediated up-regulation of twist1 mRNA expression in a dose-dependent fashion

Molecule: S=C(S)N1CCCC1 [PDTC, pyrrolidine dithiocarbamate]
- PMA/ionomycin mediated up-regulation of twist1 mRNA expression [1]: blocked the PMA/ionomycin mediated up-regulation of twist1 mRNA expression in a dose-dependent fashion

Molecule: CCCCCCCCCCCCCC(=O)O[C@@H]1[C@@H](C)[C@@]2(O)[C@@H](C=C(CO)C[C@]3(O)C(=O)C(C)=C[C@@H]23)[C@@H]2C(C)(C)[C@]12OC(C)=O [PMA]
- induction of twist1 expression by stimulus alone [1]: did not induce twist1 expression

Molecule: Hop-specific shRNA: retroviral vector encoded shRNA against Hop, target sequence SEQ ID NO. 40, whole shRNA SEQ ID NO. 41 (TGCAGATCTGTTACGGACTATTCAAGAGATAGTCCGTAACAGATCTGCTTTTTTC)
- clinical signs of inflammation, histological analysis of the intestine [2]: strongly reduced clinical signs of inflammation

Molecule: IFN-γ: cytokine added in the absence of IL-12, 10 ng/ml
- induction of twist1 expression by polarizing signal [3]: did not induce twist1 expression

Molecule: TNF-α
- induction of twist1 expression by stimulus alone [1]: did not induce twist1 expression

B1: IL-12: recombinant murine IL-12, Th1-polarizing signal (protein, UniProt P43431 23-215; P43432 23-335, looked up)
Interleukin-12 subunit alpha: RVIPVSGPARCLSQSRNLLKTTDDMVKTAREKLKHYSCTAEDIDHEDITRDQTSTLKTCLPLELHKNESCLATRETSSTTRGSCLPPQKTSLMMTLCLGSIYEDLKMYQTEFQAINAALQNHNHQQIILDKGMLVAIDELMQSLNHNGETLRQKPPVGEADPYRVKMKLCILLHAFSTRVVTINRVMGYLSSA
Interleukin-12 subunit beta: MWELEKDVYVVEVDWTPDAPGETVNLTCDTPEEDDITWTSDQRHGVIGSGKTLTITVKEFLDAGQYTCHKGGETLSHSHLLLHKKENGIWSTEILKNFKNKTFLKCEAPNYSGRFTCSWLVQRNMDLKFNIKSSSSSPDSRAVTCGMASLSAEKVTLDQRDYEKYSVSCQEDVTCPTAEETLPIELALEARQQNKYENYSTSFFIRDIIKPDPPKNLQMKPLKNSQVEVSWEYPDSWSTPHSYFSLKFFVRIQRKKEKMKETEEGCNQKGAFLVEKTSTEVQCKGGNVCVQAQDRYYNSSCSKWACVPCRVRS
- induction of twist1 expression by polarizing signal [3]: induced twist1 expression in a dose-dependent fashion
- increase of TCR activation-dependent twist1 expression over one week stimulated Th1 cells ([3]; Th1 cells polarized one week with IL-12, reactivated another week in the presence of IL-12 (FIG. 3D)): 16 fold
